The results in this text go back to publication PMC8341802 (RSC Chemical Biology, 2021).

The assay has as its target APOBEC3A (A3A) (Homo sapiens, UniProt P31941). It counts as biochemical.

APOBEC3A (A3A), sequence (P31941 whole entry): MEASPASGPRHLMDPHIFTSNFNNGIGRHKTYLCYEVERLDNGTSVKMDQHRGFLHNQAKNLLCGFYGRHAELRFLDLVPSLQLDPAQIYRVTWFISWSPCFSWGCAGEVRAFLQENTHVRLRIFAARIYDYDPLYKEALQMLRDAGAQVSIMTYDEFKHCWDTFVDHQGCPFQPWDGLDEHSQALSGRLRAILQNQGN

In the case of `O=C(O)C1=CC(=C(c2ccc(O)c(C(=O)O)c2)c2ccc(O)c(C(=O)O)c2)C=CC1=O` [MN1, aurintricarboxylic acid], inhibition was half-maximal at 40.5 µM (IC50).
